Here are results for four compounds from patent publication US6841559B1, “Pyridinones to treat and prevent bacterial infections” (Washington University of St. Louis, priority 1999, dated 2005).

Experiment [1] addresses periplasmic chaperone FimC (Escherichia coli, UniProt P31697). The experiment is described as follows: Direct binding assay on BIACORE 3000, immobilized FimC. The following applies: pyridinone 30 uM, 25° C., 30 μL/min, triplicate, Sensor Chip CM5. The method, then: (§1) The affinity of the following pyridinone: [drawing 73] for periplasmic chaperones PapD and FimC were investigated using a direct binding assay on BIACORE 3000. Methods
(§2) PapD (50 μg/ML in 10 mM NaAc pH 5.5) and FimC (50 μg/mL in 10 mM NaAc pH 5.5) were mobilized on Sensor Chi CM5 using standard thiol coupling procedure. This procedure was also employed for coupling of non-target proteins. Immobilization levels of 4000-10000 RU were obtained. Unmodified dextrane in one of the flow cells was used as reference surface.
(§3) The pyridinone was diluted from 10 mM DMSO stock solution to a final concentration of 30 μM in running buffer (6.7 mM phosphate buffer (9.6 g Na2HPO4.2H2O, 1.7 G KH2PO4, 4.1 g NaCl, 100 mL H2O), 3.4 mM EDTA, 0.01% TWEEN, 5% DMSO, pH 7.4) so that the concentrations of DMSO and buffer substances were carefully matched. The compounds were injected (flow rate was 30 μL/min at 25° C.) and the binding of the compounds to the immobilized chaperone proteins was observed on real time. The surface was regenerated by injection of 10 mM glycin.HCl, pH 2.0 and then washed with a 1:1 mixture of DMSO and water.
(§4) For screening of the affinity of the compounds of PapD and FimC, the pyridinone was injected (flow rate was 30 μL/min at 25° C.) at a concentration of 30 μM in triplicate. […]
as §3, with “KH2PO2PO4,” for “KH2PO4,”, “water. […]” for “water.”
(§5) A direct binding assay on BIACORE 3000 was employed to test the affinity of the following pyridinone: [drawing 76] for periplasmic chaperones PapD and FimC. Methods
On the technique in general: SPR reads the build-up and loss of mass on a sensor chip optically.

The target of experiment [2] is periplasmic chaperone PapD (Escherichia coli, UniProt P15319). Briefly: Direct binding assay on BIACORE 3000, immobilized PapD. The following applies: pyridinone 30 uM, 25° C., 30 μL/min, triplicate, Sensor Chip CM5. As to the method: as §1, §2, §3, §4
as §3, with “KH2PO2PO4,” for “KH2PO4,”, “water. […]” for “water.”
as §5

Structures are written as SMILES.

Sequence of periplasmic chaperone FimC (P31697 37-241): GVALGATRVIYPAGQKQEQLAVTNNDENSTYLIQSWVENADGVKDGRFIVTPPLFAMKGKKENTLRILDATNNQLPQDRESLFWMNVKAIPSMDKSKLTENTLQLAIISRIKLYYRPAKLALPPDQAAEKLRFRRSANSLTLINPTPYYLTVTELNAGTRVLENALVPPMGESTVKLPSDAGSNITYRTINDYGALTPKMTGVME
Sequence of periplasmic chaperone PapD (P15319 22-239): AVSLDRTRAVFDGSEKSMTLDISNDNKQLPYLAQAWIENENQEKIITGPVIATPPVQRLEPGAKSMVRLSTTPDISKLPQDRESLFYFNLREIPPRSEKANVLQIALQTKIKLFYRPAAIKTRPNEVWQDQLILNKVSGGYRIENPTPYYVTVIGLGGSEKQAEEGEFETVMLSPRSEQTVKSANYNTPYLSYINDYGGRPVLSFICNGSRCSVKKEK

Consider `O=C(O)[C@@H]1CSc2cc(Cc3cccc4ccccc34)cc(=O)n21` [H_Pyr_COOH], for which the “Response Units FimC 30 uM” value in experiment [1] is reported as 11,69075072 Response Units. Also, the “Response Units PapD 30 uM” value in experiment [2] was 6,760176162 Response Units.

Turning to `Cc1cc(=O)n2c(c1C)SC[C@H]2C(=O)O` [Me_Me_Pyr_COOH], in experiment [1], the “Response Units FimC 30 uM” value is 6,535311642 Response Units. Also, the “Response Units PapD 30 uM” value in experiment [2] is listed as 1,676914034 Response Units.

As for `Cc1cc(=O)n2c(c1-c1ccccc1)SC[C@H]2C(=O)O` [Me_Ph_Pyr_COOH], in experiment [1], the “Response Units FimC 30 uM” value is given as 6,753367367 Response Units. Also, the “Response Units PapD 30 uM” value in experiment [2] is listed as 3,90056354 Response Units.

As to `O=C(O)[C@@H]1CSc2c(-c3ccccc3)c(Cc3cccc4ccccc34)cc(=O)n21` [Ph_Pyr_COOH], in experiment [1], the “Response Units FimC 30 uM” value is on record as 60,71350348 Response Units. Besides, the “Response Units PapD 30 uM” value in experiment [2] was 46,22397585 Response Units.
